Some test systems named below: IGROV-1; HOP-62; LOX IMVI; K562; TK-10; SK-MEL-28; HL-60; NCI-H23; SK-MEL-5; KM12; SNB-75; SK-MEL-2; RXF 393; SF-539; RPMI-8226; HOP-92.
Holding throughout (assay): growth of human tumour cells (NCI), 48 h

Values joined by “and” are separate entries in the source; they are usually repeats but may differ in a detail not shown here. Equal values may be shown once.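 All cell lines were grown in 96-well plates and treated with compound for 48 hours. At the GI50, growth is halved.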 Active and inactive are the calls of the source. Rule as the data show it: active = GI50 up to about 1.1 µM and inactive = higher.

As for `COC(=O)CCC1CCc2c(OC)ccc(OC)c2C1=O` (centres undefined), the GI50 with IGROV-1, in the assay on HOP-62, with LOX IMVI, with K562, with TK-10 and in the assay on SK-MEL-28 was > 100 µM (inactive) in each case. The GI50 in the assay with HL-60, with NCI-H23, in the assay with SK-MEL-5, in the assay on KM12, with SNB-75 and in the assay on SK-MEL-2 was > 100 µM (inactive) each time. For the same compound, the GI50 in the assay with RXF 393, in the assay on SF-539 and with RPMI-8226 was > 100 µM (inactive) throughout.
Regarding `CSC1CC2C(CC1(C)O)C2(C)C` (centres undefined), the GI50 was > 100 µM (inactive) with IGROV-1; > 100 µM (inactive) in the assay with HOP-62; 95.5 µM (inactive) in the assay with LOX IMVI; > 100 µM (inactive) with TK-10; > 100 µM (inactive) in the assay with SK-MEL-28; > 100 µM (inactive) with NCI-H23. Also, the GI50 in the assay with SK-MEL-5 is > 100 µM (inactive) and 53.8 µM (inactive); in the assay with KM12, > 100 µM (inactive); in the assay with SK-MEL-2 it was > 100 µM (inactive); in the assay with SF-539, > 100 µM (inactive); in the assay with RPMI-8226, > 100 µM (inactive).
Consider `CC1=N/C(=C\c2c(O)ccc3ccccc23)C(=O)O1`, for which the GI50 with IGROV-1, with HOP-62, in the assay on HOP-92, with K562, in the assay with SK-MEL-28 and in the assay with HL-60 was > 100 µM (inactive) each time. For the same compound, the GI50 is > 100 µM (inactive) in the assay with NCI-H23; > 100 µM (inactive) in the assay on SK-MEL-5; > 100 µM (inactive) in the assay on KM12; 0.849 µM (active) in the assay on SNB-75; > 100 µM (inactive) in the assay on SK-MEL-2; > 100 µM (inactive) in the assay on RXF 393. The GI50 with SF-539 and in the assay on RPMI-8226 was > 100 µM (inactive) throughout.
Regarding `[N-]=[N+]=NC1C2CC3CC(C2)CC1C3` (centres undefined), the GI50 in the assay on IGROV-1, with HOP-62, with HOP-92, in the assay on LOX IMVI, in the assay on K562 and in the assay with TK-10 was > 100 µM (inactive) each time. Besides, the GI50 with SK-MEL-28, with NCI-H23, in the assay with SK-MEL-5, in the assay on KM12, in the assay on SNB-75 and with SK-MEL-2 was > 100 µM (inactive) each time. In addition, the GI50 with SF-539 and with RPMI-8226 was > 100 µM (inactive) in each case.
Consider `O=C(Nc1ccc(S(=O)(=O)N[C@@H](C(=O)O)c2ccccc2)cc1)c1ccc(F)cc1`, for which the GI50 with IGROV-1, in the assay with HOP-92, in the assay on LOX IMVI, in the assay with K562, in the assay on TK-10 and with SK-MEL-28 was > 100 µM (inactive) throughout. In addition, the GI50 in the assay on NCI-H23, in the assay on SK-MEL-5, in the assay on KM12, in the assay on SNB-75, with SK-MEL-2 and in the assay with RXF 393 was > 100 µM (inactive) throughout. In addition, the GI50 in the assay with SF-539 and in the assay with RPMI-8226 was > 100 µM (inactive) throughout.
Consider `COc1ccc(C(=O)C(c2ccc(OC)cc2)C2OC(=O)C(Cl)=C2Cl)cc1` (centres undefined), for which the GI50 in the assay with IGROV-1, with HOP-62, with HOP-92, in the assay on LOX IMVI, with K562 and with TK-10 was > 100 µM (inactive) in each case. Also, the GI50 with SK-MEL-28, in the assay with HL-60, in the assay on NCI-H23, in the assay with SK-MEL-5, in the assay with KM12 and in the assay on SK-MEL-2 was > 100 µM (inactive) each time. In addition, the GI50 in the assay on RXF 393, in the assay with SF-539 and in the assay with RPMI-8226 was > 100 µM (inactive) throughout.
Take `O/N=C/c1cc2c(cc1Br)OCO2`: the GI50 in the assay with IGROV-1, in the assay on HOP-62, in the assay on LOX IMVI, with K562, in the assay with TK-10 and in the assay with HL-60 was > 100 µM (inactive) in each case. Also, the GI50 with NCI-H23, in the assay with SK-MEL-5, with KM12, in the assay on SNB-75, in the assay on SK-MEL-2 and with SF-539 was > 100 µM (inactive) in each case. Moreover, the GI50 with RPMI-8226 is > 100 µM (inactive).
Regarding `OCC(O)C(OC1OC(CO)C(O)C(O)C1O)c1nn(-c2ccc(Cl)cc2)c2nc3cc(Cl)c(Cl)cc3nc12` (centres undefined), the GI50 in the assay with HOP-62, in the assay on LOX IMVI, in the assay with K562, with TK-10, in the assay on SK-MEL-28 and with NCI-H23 was > 100 µM (inactive) in each case. The GI50 in the assay on KM12, with SNB-75, in the assay with RXF 393, in the assay with SF-539 and with RPMI-8226 was > 100 µM (inactive) in each case.
For the compound `Cc1ccccc1C(C#N)/C(=N/NC(N)=S)C(=O)Nc1c(C)cccc1C` (centres undefined), the GI50 in the assay on IGROV-1, in the assay on HOP-62, in the assay on HOP-92, in the assay with LOX IMVI, in the assay with TK-10 and in the assay on SK-MEL-28 was > 100 µM (inactive) in each case. In addition, the GI50 is > 100 µM (inactive) in the assay on HL-60; > 100 µM (inactive) with NCI-H23; 46.3 µM (inactive) in the assay on SK-MEL-5; > 100 µM (inactive) in the assay on KM12; > 100 µM (inactive) with SNB-75; > 100 µM (inactive) in the assay on SK-MEL-2. For the same compound, the GI50 is > 100 µM (inactive) with RXF 393 and 9.12 µM (inactive) in the assay with RPMI-8226.
As to `C[C@]12CCC(=O)C=C1CC[C@@H]1C2CC[C@@]2(C)C1CC[C@@H]2OC(=O)C12OC1CCC2=O` (some centres undefined), the GI50 in the assay on IGROV-1 was 10.8 µM (inactive); with HOP-62, 30.7 µM (inactive); with HOP-92 it was 19.8 µM (inactive); in the assay with LOX IMVI it was 16 µM (inactive); with K562, 24.4 µM (inactive); in the assay with TK-10, 20 µM (inactive). Besides, the GI50 in the assay with SK-MEL-28 is 17.4 µM (inactive); in the assay on HL-60, 6.9 µM (inactive); in the assay with NCI-H23, 18.8 µM (inactive); in the assay on SK-MEL-5 it was 16.2 µM (inactive); with KM12, 18.7 µM (inactive); in the assay on SNB-75, 16.7 µM (inactive). The GI50 in the assay with SK-MEL-2 is 15.2 µM (inactive); with RXF 393, 5.16 µM (inactive); in the assay with SF-539, 20.3 µM (inactive); with RPMI-8226, 20.9 µM (inactive).
Turning to `CC(c1ccccc1)N1CC(C)(c2ccccc2)N(O)C(c2ccccc2)C1C` (centres undefined), the GI50 was 7.45 µM (inactive) in the assay with IGROV-1; 15.5 µM (inactive) in the assay on HOP-62; 2.21 µM (inactive) with HOP-92; 12.2 µM (inactive) in the assay on LOX IMVI; 7.28 µM (inactive) in the assay with K562; 17.1 µM (inactive) with TK-10. The GI50 was 4.08 µM (inactive) in the assay on SK-MEL-28; 3.52 µM (inactive) in the assay on HL-60; 8.04 µM (inactive) with NCI-H23; 7.82 µM (inactive) in the assay on SK-MEL-5; 8 µM (inactive) with KM12; 6.03 µM (inactive) in the assay on SNB-75. Further, the GI50 with SK-MEL-2 is 5.42 µM (inactive); with RXF 393, 4.41 µM (inactive); in the assay on SF-539 it was 5.73 µM (inactive); with RPMI-8226, 3.75 µM (inactive).
Take `CN1CCCC2[C@@H]3CCC4=C(O)C(=O)CC[C@]4(C)C3CC[C@@]21C` (some centres undefined): the GI50 in the assay on IGROV-1, in the assay on HOP-62, in the assay on HOP-92, in the assay on LOX IMVI, in the assay on K562 and in the assay with TK-10 was > 100 µM (inactive) in each case. Also, the GI50 with SK-MEL-28, in the assay on HL-60, with NCI-H23, in the assay with SK-MEL-5, with KM12 and in the assay with SNB-75 was > 100 µM (inactive) in each case. Moreover, the GI50 in the assay with SK-MEL-2 is 1.4 µM (inactive); in the assay with RXF 393 it was > 100 µM (inactive); with SF-539, > 100 µM (inactive); in the assay on RPMI-8226 it was > 100 µM (inactive).
With `Cc1cc2c(=O)cc(-c3ccc(C(F)(F)F)cc3)oc2c(C(=O)O)c1C`, the GI50 in the assay with IGROV-1, with LOX IMVI, with K562, in the assay on TK-10, with SK-MEL-28 and in the assay on NCI-H23 was > 100 µM (inactive) in each case. Further, the GI50 with SK-MEL-5, in the assay with KM12, in the assay on SNB-75, in the assay with SK-MEL-2, in the assay with RXF 393 and in the assay on SF-539 was > 100 µM (inactive) in each case. Besides, the GI50 in the assay on RPMI-8226 is > 100 µM (inactive).
Regarding `c1ccc(C2[C@@H]3CCCc4ccccc4C3=NN2c2ccccc2)cc1` (some centres undefined), the GI50 is > 100 µM (inactive) in the assay with IGROV-1; > 100 µM (inactive) in the assay with HOP-62; 40.8 µM (inactive) with LOX IMVI; 32.7 µM (inactive) in the assay with K562; > 100 µM (inactive) with TK-10; > 100 µM (inactive) in the assay on SK-MEL-28. In addition, the GI50 is 80 µM (inactive) with HL-60; 61 µM (inactive) in the assay on NCI-H23; 18.8 µM (inactive) in the assay with SK-MEL-5; > 100 µM (inactive) with KM12; 92.3 µM (inactive) with RXF 393; 40.7 µM (inactive) in the assay with RPMI-8226.

The record behind these values is ChEMBL document CHEMBL1201862, “PubChem BioAssay data set” (2004).
